According to patent US5880119A, “Mercaptoacetylamino 1,3,4,5-tetrahydro-benzo(C)azepin-2-one disulfide derivatives useful as inhibitors of enkephalinase and ACE” (Merrell Pharmaceuticals Inc., priority 1997, dated 1999):

Molecular target: T1, ACE (Angiotensin-Converting Enzyme) of rat kidney preparations (Rattus norvegicus, UniProt P47820)
T1 construct: compound- or vehicle-dosed rat kidney preparations; from tissue; host or cells: kidney of male Sprague-Dawley rats
T1 sequence (P47820 36-1313): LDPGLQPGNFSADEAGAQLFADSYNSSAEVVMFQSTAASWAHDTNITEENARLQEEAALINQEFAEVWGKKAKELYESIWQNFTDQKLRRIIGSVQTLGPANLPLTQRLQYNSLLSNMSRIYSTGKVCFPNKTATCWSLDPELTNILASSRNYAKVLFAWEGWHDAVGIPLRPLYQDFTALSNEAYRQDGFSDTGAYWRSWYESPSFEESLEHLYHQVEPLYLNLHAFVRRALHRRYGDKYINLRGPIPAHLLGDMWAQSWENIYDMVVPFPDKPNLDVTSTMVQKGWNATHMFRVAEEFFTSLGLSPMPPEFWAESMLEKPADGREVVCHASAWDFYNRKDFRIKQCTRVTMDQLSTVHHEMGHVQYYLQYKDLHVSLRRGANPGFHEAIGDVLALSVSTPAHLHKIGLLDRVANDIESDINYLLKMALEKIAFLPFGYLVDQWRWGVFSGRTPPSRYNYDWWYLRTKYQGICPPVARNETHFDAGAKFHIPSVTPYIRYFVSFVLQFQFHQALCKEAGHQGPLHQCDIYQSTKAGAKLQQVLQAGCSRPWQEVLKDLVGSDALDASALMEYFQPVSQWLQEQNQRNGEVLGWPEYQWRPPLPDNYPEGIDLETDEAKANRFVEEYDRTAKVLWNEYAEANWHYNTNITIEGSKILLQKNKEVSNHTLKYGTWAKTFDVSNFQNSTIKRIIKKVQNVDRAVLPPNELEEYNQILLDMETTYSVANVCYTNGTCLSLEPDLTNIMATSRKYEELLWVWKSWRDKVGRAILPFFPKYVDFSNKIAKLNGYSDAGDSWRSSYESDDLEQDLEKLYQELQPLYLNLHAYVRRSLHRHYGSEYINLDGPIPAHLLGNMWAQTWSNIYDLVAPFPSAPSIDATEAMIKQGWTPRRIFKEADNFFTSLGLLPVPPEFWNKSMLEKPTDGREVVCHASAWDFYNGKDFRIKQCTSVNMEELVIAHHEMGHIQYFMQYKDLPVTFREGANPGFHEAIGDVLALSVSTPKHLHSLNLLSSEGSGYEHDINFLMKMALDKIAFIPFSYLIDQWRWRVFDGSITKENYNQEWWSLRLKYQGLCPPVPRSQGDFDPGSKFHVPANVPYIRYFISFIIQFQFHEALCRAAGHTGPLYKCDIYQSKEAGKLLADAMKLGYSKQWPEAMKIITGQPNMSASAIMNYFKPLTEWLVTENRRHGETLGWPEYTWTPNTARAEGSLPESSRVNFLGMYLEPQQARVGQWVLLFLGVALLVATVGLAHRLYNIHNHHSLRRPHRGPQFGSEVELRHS
Test: Radiometric ACE activity assay on rat kidney preparations
Assay type: biochemical, rat (Sprague-Dawley)
Details: 1 μM enalaprilat; substrate tritiated hippuryl-glycyl-glycine; compound- or vehicle-dosed rat kidney preparations

C[C@H](N[C@@H](CCc1ccccc1)C(=O)O)C(=O)N1CCC[C@H]1C(=O)O [enalaprilat]
inhibition of radioactive product formation: Complete inhibition
